Source: ChEMBL document CHEMBL5113398, “Design and synthesis of new quinoline derivatives as selective C-RAF kinase inhibitors with potent anticancer activity” (Eur J Med Chem, 2022)

Tests used:
[1] = test system: K562; assay: Anticancer activity against human K562 cells assessed as total cell growth inhibition incubated for 48 hrs by SRB assay; assay type: functional
[2] = test system: IGROV-1; assay: Anticancer activity against human IGROV-1 cells assessed as total cell growth inhibition incubated for 48 hrs by SRB assay; assay type: functional
[3] = test system: MDA-MB-435; assay: Anticancer activity against human MDA-MB-435 cells assessed as cell growth inhibition incubated for 48 hrs by SRB assay; assay type: functional
[4] = test system: HOP-92; assay: Anticancer activity against human HOP-92 cells assessed as total cell growth inhibition incubated for 48 hrs by SRB assay; assay type: functional
[5] = test system: RPMI-8226; assay: Anticancer activity against human RPMI-8226 cells assessed as cell growth inhibition incubated for 48 hrs by SRB assay; assay type: functional
[6] = test system: PC-3; assay: Anticancer activity against human PC-3 cells assessed as total cell growth inhibition incubated for 48 hrs by SRB assay; assay type: functional
[7] = test system: SW-620; assay: Anticancer activity against human SW-620 cells assessed as cell growth inhibition incubated for 48 hrs by SRB assay; assay type: functional
[8] = test system: ACHN; assay: Anticancer activity against human ACHN cells assessed as total cell growth inhibition incubated for 48 hrs by SRB assay; assay type: functional
[9] = test system: MCF7; assay: Anticancer activity against human MCF7 cells assessed as cell growth inhibition incubated for 48 hrs by SRB assay; assay type: functional
[10] = test system: EKVX; assay: Anticancer activity against human EKVX cells assessed as cell growth inhibition incubated for 48 hrs by SRB assay; assay type: functional
[11] = test system: SN12C; assay: Anticancer activity against human SN12C cells assessed as cell growth inhibition incubated for 48 hrs by SRB assay; assay type: functional
[12] = test system: Malme-3M; assay: Anticancer activity against human Malme-3M cells assessed as cell growth inhibition incubated for 48 hrs by SRB assay; assay type: functional
[13] = test system: BT-549; assay: Anticancer activity against human BT-549 cells assessed as cell growth inhibition incubated for 48 hrs by SRB assay; assay type: functional
[14] = test system: UACC-62; assay: Anticancer activity against human UACC-62 cells assessed as cell growth inhibition incubated for 48 hrs by SRB assay; assay type: functional
[15] = test system: OVCAR-5; assay: Anticancer activity against human OVCAR-5 cells assessed as total cell growth inhibition incubated for 48 hrs by SRB assay; assay type: functional
[16] = test system: OVCAR-8; assay: Anticancer activity against human OVCAR-8 cells assessed as cell growth inhibition incubated for 48 hrs by SRB assay; assay type: functional
[17] = test system: LOX IMVI; assay: Anticancer activity against human LOX IMVI cells assessed as cell growth inhibition incubated for 48 hrs by SRB assay; assay type: functional
[18] = n-Octanol/PBS partition coefficient, logD of the compound at pH 7.4; assay type: physicochemical
[19] = test system: CCRF-CEM; assay: Anticancer activity against human CCRF-CEM cells assessed as cell growth inhibition incubated for 48 hrs by SRB assay; assay type: functional
[20] = test system: U-251; assay: Anticancer activity against human U-251 cells assessed as total cell growth inhibition incubated for 48 hrs by SRB assay; assay type: functional
[21] = test system: SF-268; assay: Anticancer activity against human SF-268 cells assessed as total cell growth inhibition incubated for 48 hrs by SRB assay; assay type: functional
[22] = test system: SNB-19; assay: Anticancer activity against human SNB-19 cells assessed as total cell growth inhibition incubated for 48 hrs by SRB assay; assay type: functional
[23] = test system: U-251; assay: Anticancer activity against human U-251 cells assessed as cell growth inhibition incubated for 48 hrs by SRB assay; assay type: functional
[24] = test system: HCC 2998; assay: Anticancer activity against human HCC 2998 cells assessed as cell growth inhibition incubated for 48 hrs by SRB assay; assay type: functional
[25] = test system: MDA-MB-231; assay: Anticancer activity against human MDA-MB-231 cells assessed as cell growth inhibition incubated for 48 hrs by SRB assay; assay type: functional
[26] = test system: OVCAR-5; assay: Anticancer activity against human OVCAR-5 cells assessed as cell growth inhibition incubated for 48 hrs by SRB assay; assay type: functional
[27] = test system: SF-295; assay: Anticancer activity against human SF-295 cells assessed as total cell growth inhibition incubated for 48 hrs by SRB assay; assay type: functional
[28] = test system: ACHN; assay: Anticancer activity against human ACHN cells assessed as cell growth inhibition incubated for 48 hrs by SRB assay; assay type: functional
[29] = test system: MDA-MB-231; assay: Anticancer activity against human MDA-MB-231 cells assessed as total cell growth inhibition incubated for 48 hrs by SRB assay; assay type: functional
[30] = test system: TK-10; assay: Anticancer activity against human TK-10 cells assessed as cell growth inhibition incubated for 48 hrs by SRB assay; assay type: functional
[31] = biological target: Hepatocyte growth factor receptor (Homo sapiens) (UniProt P08581); assay: Inhibition of MET (unknown origin) at 1 uM in presence of ATP by hotspot kinase assay
Hepatocyte growth factor receptor (Homo sapiens), sequence (P08581 whole entry): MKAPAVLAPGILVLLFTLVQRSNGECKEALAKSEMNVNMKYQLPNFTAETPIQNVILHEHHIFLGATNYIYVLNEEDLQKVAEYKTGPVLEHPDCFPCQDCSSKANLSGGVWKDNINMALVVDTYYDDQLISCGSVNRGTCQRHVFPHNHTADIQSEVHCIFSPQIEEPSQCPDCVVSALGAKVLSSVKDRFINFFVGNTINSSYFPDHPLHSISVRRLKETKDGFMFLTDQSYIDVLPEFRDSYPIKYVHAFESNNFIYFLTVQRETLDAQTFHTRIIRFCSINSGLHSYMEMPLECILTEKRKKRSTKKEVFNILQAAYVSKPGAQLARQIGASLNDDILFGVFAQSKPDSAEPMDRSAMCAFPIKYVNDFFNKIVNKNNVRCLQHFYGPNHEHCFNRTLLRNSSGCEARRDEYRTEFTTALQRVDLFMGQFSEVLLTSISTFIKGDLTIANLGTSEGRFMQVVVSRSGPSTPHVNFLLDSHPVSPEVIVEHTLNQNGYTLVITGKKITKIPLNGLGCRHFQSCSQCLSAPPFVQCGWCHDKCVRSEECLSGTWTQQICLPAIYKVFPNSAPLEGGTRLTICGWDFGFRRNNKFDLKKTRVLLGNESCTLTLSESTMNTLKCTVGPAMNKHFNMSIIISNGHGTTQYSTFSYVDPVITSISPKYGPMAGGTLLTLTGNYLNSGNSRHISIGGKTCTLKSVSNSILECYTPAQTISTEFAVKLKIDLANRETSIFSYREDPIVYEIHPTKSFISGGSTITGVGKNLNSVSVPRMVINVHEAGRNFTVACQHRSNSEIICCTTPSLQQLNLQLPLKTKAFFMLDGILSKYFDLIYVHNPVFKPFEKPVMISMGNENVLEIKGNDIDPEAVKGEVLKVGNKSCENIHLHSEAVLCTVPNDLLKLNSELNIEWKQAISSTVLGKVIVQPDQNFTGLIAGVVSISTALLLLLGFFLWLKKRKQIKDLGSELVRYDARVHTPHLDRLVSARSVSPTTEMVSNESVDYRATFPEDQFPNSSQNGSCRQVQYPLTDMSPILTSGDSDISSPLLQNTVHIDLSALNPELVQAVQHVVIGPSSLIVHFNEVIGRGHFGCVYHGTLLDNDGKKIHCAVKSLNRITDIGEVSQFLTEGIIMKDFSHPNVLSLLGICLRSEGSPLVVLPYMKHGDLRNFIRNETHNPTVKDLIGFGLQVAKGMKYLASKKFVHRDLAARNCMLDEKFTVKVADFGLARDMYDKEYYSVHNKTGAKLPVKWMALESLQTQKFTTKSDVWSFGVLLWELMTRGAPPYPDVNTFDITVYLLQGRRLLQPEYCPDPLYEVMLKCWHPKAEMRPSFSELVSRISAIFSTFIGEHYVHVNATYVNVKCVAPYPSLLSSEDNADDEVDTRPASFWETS

[32] = test system: NCI-H322M; assay: Anticancer activity against human NCI-H322M cells assessed as total cell growth inhibition incubated for 48 hrs by SRB assay; assay type: functional
[33] = biological target: Vascular endothelial growth factor receptor 2 (Homo sapiens) (UniProt P35968); assay: Inhibition of VEGFR2 (unknown origin) at 1 uM in presence of ATP by hotspot kinase assay
Vascular endothelial growth factor receptor 2 (Homo sapiens), sequence (P35968 whole entry): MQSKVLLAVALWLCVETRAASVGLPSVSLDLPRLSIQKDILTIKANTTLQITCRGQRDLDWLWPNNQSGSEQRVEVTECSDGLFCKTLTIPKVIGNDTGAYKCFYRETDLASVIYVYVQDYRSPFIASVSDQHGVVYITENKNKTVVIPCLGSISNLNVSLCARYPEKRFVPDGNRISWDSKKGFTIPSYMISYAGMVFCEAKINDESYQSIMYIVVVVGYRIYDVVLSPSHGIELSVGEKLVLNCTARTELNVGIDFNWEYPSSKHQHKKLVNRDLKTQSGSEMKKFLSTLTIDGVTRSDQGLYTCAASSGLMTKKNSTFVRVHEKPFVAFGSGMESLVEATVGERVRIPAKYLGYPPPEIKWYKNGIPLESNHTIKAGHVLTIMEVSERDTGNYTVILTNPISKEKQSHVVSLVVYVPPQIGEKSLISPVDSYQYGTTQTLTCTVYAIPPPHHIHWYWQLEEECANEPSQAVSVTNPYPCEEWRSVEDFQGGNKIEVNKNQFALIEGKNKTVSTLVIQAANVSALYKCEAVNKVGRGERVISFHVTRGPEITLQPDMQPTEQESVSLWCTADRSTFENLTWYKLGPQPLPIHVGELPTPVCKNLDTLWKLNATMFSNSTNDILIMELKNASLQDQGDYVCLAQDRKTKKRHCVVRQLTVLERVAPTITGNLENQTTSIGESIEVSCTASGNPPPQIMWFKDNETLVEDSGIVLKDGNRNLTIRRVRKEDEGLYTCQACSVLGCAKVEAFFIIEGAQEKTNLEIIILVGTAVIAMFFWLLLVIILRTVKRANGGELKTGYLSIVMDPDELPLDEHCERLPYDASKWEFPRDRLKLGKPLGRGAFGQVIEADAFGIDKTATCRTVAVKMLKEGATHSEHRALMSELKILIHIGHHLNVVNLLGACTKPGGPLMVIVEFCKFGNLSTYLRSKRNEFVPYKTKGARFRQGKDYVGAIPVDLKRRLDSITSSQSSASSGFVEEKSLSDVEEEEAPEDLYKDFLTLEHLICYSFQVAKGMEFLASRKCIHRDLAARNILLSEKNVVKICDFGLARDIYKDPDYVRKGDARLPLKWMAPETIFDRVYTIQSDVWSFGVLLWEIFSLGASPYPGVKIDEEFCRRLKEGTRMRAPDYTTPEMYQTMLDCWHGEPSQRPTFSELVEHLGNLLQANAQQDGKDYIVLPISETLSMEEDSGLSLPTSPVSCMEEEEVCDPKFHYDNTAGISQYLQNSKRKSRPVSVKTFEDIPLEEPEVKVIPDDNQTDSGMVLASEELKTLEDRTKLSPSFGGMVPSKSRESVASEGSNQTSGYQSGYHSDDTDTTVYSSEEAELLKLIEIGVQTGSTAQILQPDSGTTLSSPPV

[34] = test system: NCI-H226; assay: Anticancer activity against human NCI-H226 cells assessed as total cell growth inhibition incubated for 48 hrs by SRB assay; assay type: functional
[35] = test system: 786-0; assay: Anticancer activity against human 786-0 cells assessed as cell growth inhibition incubated for 48 hrs by SRB assay; assay type: functional
[36] = test system: UACC-62; assay: Anticancer activity against human UACC-62 cells assessed as total cell growth inhibition incubated for 48 hrs by SRB assay; assay type: functional
[37] = test system: HCC 2998; assay: Anticancer activity against human HCC 2998 cells assessed as total cell growth inhibition incubated for 48 hrs by SRB assay; assay type: functional
[38] = test system: NCI-H322M; assay: Anticancer activity against human NCI-H322M cells assessed as cell growth inhibition incubated for 48 hrs by SRB assay; assay type: functional
[39] = test system: SF-539; assay: Anticancer activity against human SF-539 cells assessed as cell growth inhibition incubated for 48 hrs by SRB assay; assay type: functional
[40] = test system: SK-OV-3; assay: Anticancer activity against human SK-OV-3 cells assessed as cell growth inhibition incubated for 48 hrs by SRB assay; assay type: functional
[41] = test system: CCRF-CEM; assay: Anticancer activity against human CCRF-CEM cells assessed as total cell growth inhibition incubated for 48 hrs by SRB assay; assay type: functional
[42] = test system: TK-10; assay: Anticancer activity against human TK-10 cells assessed as total cell growth inhibition incubated for 48 hrs by SRB assay; assay type: functional
[43] = test system: CAKI-1; assay: Anticancer activity against human CAKI-1 cells assessed as total cell growth inhibition incubated for 48 hrs by SRB assay; assay type: functional
[44] = test system: MOLT-4; assay: Anticancer activity against human MOLT-4 cells assessed as total cell growth inhibition incubated for 48 hrs by SRB assay; assay type: functional
[45] = test system: MDA-MB-468; assay: Anticancer activity against human MDA-MB-468 cells assessed as cell growth inhibition incubated for 48 hrs by SRB assay; assay type: functional
[46] = test system: PC-3; assay: Anticancer activity against human PC-3 cells assessed as cell growth inhibition incubated for 48 hrs by SRB assay; assay type: functional
[47] = test system: HCT-116; assay: Anticancer activity against human HCT-116 cells assessed as cell growth inhibition incubated for 48 hrs by SRB assay; assay type: functional
[48] = test system: NCI-H226; assay: Anticancer activity against human NCI-H226 cells assessed as cell growth inhibition incubated for 48 hrs by SRB assay; assay type: functional
[49] = test system: M14; assay: Anticancer activity against human M14 cells assessed as cell growth inhibition incubated for 48 hrs by SRB assay; assay type: functional
[50] = test system: SW-620; assay: Anticancer activity against human SW-620 cells assessed as total cell growth inhibition incubated for 48 hrs by SRB assay; assay type: functional

With `COc1cc2cc(Oc3ccc(NC(=O)Nc4ccc(Cl)c(C(F)(F)F)c4)cc3)c(C)nc2cc1OCCN1CCOCC1` the TGI [1] was 6.95 µM, the TGI [2] was 23.2 µM and the GI50 [3] was 1.94 µM. The TGI [4] was 6.17 µM, the GI50 [5] was 0.94 µM and the TGI [6] was 6 µM. For the same compound, the GI50 [7] was 5.52 µM, the TGI [8] was 11.6 µM and the GI50 [9] was 1.26 µM. For the same compound, the GI50 [10] was 2.07 µM, the GI50 [11] was 2.56 µM and the GI50 [12] was 1.52 µM. The GI50 [13] was 2.63 µM, the GI50 [14] was 1.36 µM and the TGI [15] was 65.2 µM. It also gave a GI50 [16] of 2.67 µM, a GI50 [17] of 1.39 µM and a logD [18] of 2.73. For the same compound, the GI50 [19] was 1.45 µM, the TGI [20] was 3.9 µM and the TGI [21] was 8.44 µM. For the same compound, the TGI [22] was 19.8 µM, the GI50 [23] was 1.76 µM and the GI50 [24] was 11.1 µM. It also gave a GI50 [25] of 2 µM, a GI50 [26] of 4.02 µM and a TGI [27] of 2.85 µM. It also gave a GI50 [28] of 2.03 µM, a TGI [29] of 5.07 µM and a GI50 [30] of 4.97 µM. It also gave an inhibition [31] of 4.3%, a TGI [32] of 11.2 µM and an inhibition [33] of 2.32%. The TGI [34] was 5.91 µM, the GI50 [35] was 1.89 µM and the TGI [36] was 3.46 µM. It also gave a TGI [37] of 11.1 µM, a GI50 [38] of 2.82 µM and a GI50 [39] of 1.68 µM. It also gave a GI50 [40] of 3.34 µM, a TGI [41] of over 100 µM and a TGI [42] of 35.2 µM. For the same compound, the TGI [43] was 10.8 µM, the TGI [44] was 10.5 µM and the GI50 [45] was 0.47 µM. The GI50 [46] was 1.36 µM, the GI50 [47] was 10.8 µM and the GI50 [48] was 1.86 µM. It also gave a GI50 [49] of 1.52 µM and a TGI [50] of 5.52 µM.
